Test results from the supplement of paper PMC10331698.
± gives the standard deviation of the averaged measurements.

Key:
Experiment in all cases: level (log10 ratio to DMSO vehicle control); higher = higher biomarker level / cell amount than vehicle control
[1] = compound: C=CC(=O)OCC(F)(F)C(F)(F)C(F)(F)C(F)(F)C(F)(F)C(F)(F)C(F)(F)C(F)F [1H,1H,9H-Perfluorononyl acrylate]; conditions: in DMSO
Protocol: (§1)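 BioMAP Diversity Plus panel of 12 human primary cell co-culture systems (3C, 4H, LPS, SAg, BT, BF4T, BE3C, CASM3C, HDF3CGF, KF3CT, MyoF, Mphg). Compounds were added 1 h before stimulation and left for 24 h (MyoF 48 h; BT 72 h for soluble read-outs or 6 d for IgG). Biomarkers were read by ELISA, cytotoxicity by SRB, PBMC viability and proliferation by Alamar Blue. Each well value was divided by the mean of 8 DMSO control wells on the same plate and log10 transformed; duplicate blinded samples were tested at 4 concentrations.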

[2] = compound: C=CC(=O)OCC(F)(F)C(F)(F)C(F)(F)C(F)(F)COC(=O)C=C [1H,1H,6H,6H-Perfluorohexane-1,6-diol diacrylate]; conditions: 6700 nM; in DMSO
Protocol: as §1

[3] = compound: C=CC(=O)OCCC(F)(F)C(F)(F)C(F)(F)C(F)(F)C(F)(F)C(F)(F)C(F)(F)C(F)(F)F [8:2 Fluorotelomer acrylate]; conditions: in DMSO
Protocol: as §1

[4] = compound: FC(F)(I)C(F)(F)C(F)(F)C(F)(F)C(F)(F)C(F)(F)I [1,6-Diiodoperfluorohexane]; conditions: 6700 nM; in DMSO
Protocol: as §1

[5] = compound: O=C(CC(=O)C(F)(F)C(F)(F)C(F)(F)F)c1cccs1 [(Perfluorobutyryl)-2-thenoylmethane]; conditions: in DMSO
Protocol: as §1

[6] = compound: O=C(O)C(F)(F)C(F)(F)C(F)(F)C(F)(F)C(F)(F)C(F)(F)C(F)(F)F [Ammonium perfluorooctanoate]; conditions: in DMSO
Protocol: as §1

[7] = compound: O=P(O)(O)CCC(F)(F)C(F)(F)C(F)(F)C(F)(F)C(F)(F)C(F)(F)F [2-(Perfluorohexyl)ethylphosphonic acid]; conditions: in DMSO
Protocol: as §1

Perfluoropinacol = compound: OC(C(F)(F)F)(C(F)(F)F)C(O)(C(F)(F)F)C(F)(F)F [Perfluoropinacol]; conditions: in DMSO
Protocol: as §1

HDF3CGF:TIMP-1
level (log10) ([1]; 6700 nM): 0.001 ± 0.042
level (log10) ([1]; 20000 nM): -0.0005 ± 0.04
level (log10) ([1]; 60000 nM): -0.0165 ± 0.047
level (log10) [2]: -0.203 ± 0.0021
level (log10) ([3]; 6700 nM): -0.03 ± 0.02
level (log10) ([3]; 20000 nM): -0.0265 ± 0.022
level (log10) ([3]; 60000 nM): -0.011 ± 0.061
level (log10) [4]: -0.077
level (log10) ([5]; 6700 nM): 0.069 ± 0.025
level (log10) ([5]; 20000 nM): 0.0215 ± 0.011
level (log10) ([6]; 6700 nM): 0.013 ± 0.0028
level (log10) ([6]; 20000 nM): 0.0065 ± 0.016
level (log10) ([6]; 60000 nM): 0.008 ± 0.02
level (log10) ([7]; 6700 nM): -0.0115 ± 0.018
level (log10) ([7]; 20000 nM): 0.0035 ± 0.005
level (log10) ([7]; 60000 nM): 0.0545 ± 0.06
level (log10) (Perfluoropinacol; 6700 nM): 0.015 ± 0.027
level (log10) (Perfluoropinacol; 20000 nM): 0.0205 ± 0.032

lMphg:CD40
level (log10) ([1]; 6700 nM): -0.0205 ± 0.005
level (log10) ([1]; 20000 nM): -0.022 ± 0.018
level (log10) ([1]; 60000 nM): -0.032 ± 0.021
level (log10) [2]: -0.051 ± 0.024
level (log10) ([3]; 6700 nM): -0.014 ± 0.025
level (log10) ([3]; 20000 nM): -0.0065 ± 0.0078
level (log10) ([3]; 60000 nM): -0.0225 ± 0.021
level (log10) [4]: -0.029
level (log10) ([5]; 6700 nM): -0.0105 ± 0.016
level (log10) ([5]; 20000 nM): -0.119 ± 0.0071
level (log10) ([6]; 6700 nM): 0.0115 ± 0.053
level (log10) ([6]; 20000 nM): -0.0145 ± 0.0092
level (log10) ([6]; 60000 nM): -0.0585 ± 0.023
level (log10) ([7]; 6700 nM): -0.0155 ± 0.0021
level (log10) ([7]; 20000 nM): -0.0165 ± 0.00071
level (log10) ([7]; 60000 nM): -0.012 ± 0.041
level (log10) (Perfluoropinacol; 6700 nM): -0.0265 ± 0.019
level (log10) (Perfluoropinacol; 20000 nM): -0.202 ± 0.03

HDF3CGF:CCL2/MCP-1
level (log10) ([1]; 6700 nM): -0.0315 ± 0.03
level (log10) ([1]; 20000 nM): -0.045 ± 0.03
level (log10) ([1]; 60000 nM): -0.0815 ± 0.046
level (log10) [2]: -0.437 ± 0.0028
level (log10) ([3]; 6700 nM): -0.03 ± 0.017
level (log10) ([3]; 20000 nM): -0.042 ± 0.031
level (log10) ([3]; 60000 nM): -0.0805 ± 0.044
level (log10) [4]: -0.68
level (log10) ([5]; 6700 nM): -0.005 ± 0.011
level (log10) ([5]; 20000 nM): -0.172 ± 0.014
level (log10) ([6]; 6700 nM): -0.0285 ± 0.0092
level (log10) ([6]; 20000 nM): -0.0605 ± 0.0078
level (log10) ([6]; 60000 nM): -0.068 ± 0.014
level (log10) ([7]; 6700 nM): -0.0335 ± 0.0021
level (log10) ([7]; 20000 nM): -0.013 ± 0.023
level (log10) ([7]; 60000 nM): -0.053 ± 0.023
level (log10) (Perfluoropinacol; 6700 nM): 0.0595 ± 0.0064
level (log10) (Perfluoropinacol; 20000 nM): 0.09 ± 0.0085

CASM3C:Serum Amyloid A
level (log10) ([1]; 6700 nM): -0.014 ± 0.014
level (log10) ([1]; 20000 nM): -0.0825 ± 0.071
level (log10) ([1]; 60000 nM): -0.067 ± 0.0071
level (log10) [2]: -0.0575 ± 0.0078
level (log10) ([3]; 6700 nM): -0.0075 ± 0.013
level (log10) ([3]; 20000 nM): -0.0125 ± 0.022
level (log10) ([3]; 60000 nM): 0.018 ± 0.028
level (log10) [4]: -0.008
level (log10) ([5]; 6700 nM): 0.0285 ± 0.013
level (log10) ([5]; 20000 nM): -0.038 ± 0.013
level (log10) ([6]; 6700 nM): 0.0345 ± 0.022
level (log10) ([6]; 20000 nM): 0.015 ± 0.0057
level (log10) ([6]; 60000 nM): 0.0345 ± 0.012
level (log10) ([7]; 6700 nM): 0.004 ± 0.023
level (log10) ([7]; 20000 nM): -0.0045 ± 0.0035
level (log10) ([7]; 60000 nM): 0.0235 ± 0.0092
level (log10) (Perfluoropinacol; 6700 nM): 0.0545 ± 0.0078
level (log10) (Perfluoropinacol; 20000 nM): 0.0595 ± 0.015

HDF3CGF:CXCL11/I-TAC
level (log10) ([1]; 6700 nM): -0.014 ± 0.0014
level (log10) ([1]; 20000 nM): -0.066 ± 0.033
level (log10) ([1]; 60000 nM): -0.214 ± 0.11
level (log10) [2]: -0.574 ± 0.078
level (log10) ([3]; 6700 nM): -0.007 ± 0.0057
level (log10) ([3]; 20000 nM): -0.0095 ± 0.0021
level (log10) ([3]; 60000 nM): -0.0105 ± 0.028
level (log10) [4]: -0.434
level (log10) ([5]; 6700 nM): -0.014 ± 0.013
level (log10) ([5]; 20000 nM): -0.114 ± 0.0092
level (log10) ([6]; 6700 nM): 0.014 ± 0.0014
level (log10) ([6]; 20000 nM): 0.037 ± 0.02
level (log10) ([6]; 60000 nM): 0.0555 ± 0.033
level (log10) ([7]; 6700 nM): -0.005
level (log10) ([7]; 20000 nM): 0.0325 ± 0.0021
level (log10) ([7]; 60000 nM): 0.0425 ± 0.021
level (log10) (Perfluoropinacol; 6700 nM): -0.062 ± 0.041
level (log10) (Perfluoropinacol; 20000 nM): -0.234 ± 0.015

HDF3CGF:CXCL10/IP-10
level (log10) ([1]; 6700 nM): -0.0105 ± 0.0064
level (log10) ([1]; 20000 nM): -0.041 ± 0.048
level (log10) ([1]; 60000 nM): -0.15 ± 0.096
level (log10) [2]: -0.492 ± 0.023
level (log10) ([3]; 6700 nM): 0.01 ± 0.021
level (log10) ([3]; 20000 nM): 0.003 ± 0.037
level (log10) ([3]; 60000 nM): 0.01 ± 0.028
level (log10) [4]: -0.315
level (log10) ([5]; 6700 nM): -0.01
level (log10) ([5]; 20000 nM): -0.141 ± 0.012
level (log10) ([6]; 6700 nM): -0.015 ± 0.0042
level (log10) ([6]; 20000 nM): -0.023 ± 0.016
level (log10) ([6]; 60000 nM): -0.0495 ± 0.04
level (log10) ([7]; 6700 nM): 0.014 ± 0.0028
level (log10) ([7]; 20000 nM): 0.0505 ± 0.0078
level (log10) ([7]; 60000 nM): 0.0525 ± 0.037
level (log10) (Perfluoropinacol; 6700 nM): -0.0535 ± 0.023
level (log10) (Perfluoropinacol; 20000 nM): -0.215 ± 0.012
